# Experimental data published in patent US20150025154A1, “OPHTHALMIC COMPOSITION” (ROHTO PHARMACEUTICAL CO., LTD., priority 2012, published 2015).
# Experiments:
# Type in all cases: physicochemical
# [1] = Test for residual ratio of GGA No. 1: storage of eye drops in glass or PET containers; details: Tables 1 to 3, glass and PET containers
# Experimental: (§1) In accordance with the measurement conditions for the elution test described in PFSB/ELD Notification No. 0412007 “teprenone 100 mg/g fine granule”, the GGA concentration of each eye drop was determined from the area value of the 5Z-mono-cis form (Ac) and the area value of the all-trans form (At) using Japanese pharmacopoeia “teprenone reference standard (all-trans form:5Z-mono-cis form=about 6:4 (weight ratio), Pharmaceutical and Medical Device Regulatory Science Society of Japan)” or teprenone (Wako Pure Chemical Industries) as a reference standard under the HPLC measurement conditions described below. For the eye drop containing teprenone (all-trans form:5Z-mono-cis form=3:2 (weight ratio)), the GGA content was calculated by summing the amounts of the all-trans form and the 5Z-mono-cis form. […]
# A polyethylene terephthalate container (8 mL) (the container for Rohto Dryaid EX, Rohto Pharmaceutical) was completely filled with each of the eye drops in an aseptic manner. […] The teprenone or all-trans form content (g/100 mL) in each of the eye drops was quantified under the HPLC conditions described above immediately after the production and after being left to stand for a predetermined period of time, and the residual ratio (%) was calculated. […]
# [2] = Test for residual ratio of GGA No. 2: eye drops in LDPE or HDPE eye drop containers, 40° C., 75% RH; details: Table 6, LDPE and HDPE eye drop containers
# Experimental: To a surfactant (POE castor oil and POE hydrogenated castor oil 60) warmed to 65° C., the all-trans form and optionally ascorbyl tetraisopalmitate were added and dissolved under stirring in a hot water bath at 65° C. for 2 minutes. Water at 65° C. was added and each buffer was added under stirring to give a homogeneous solution. The pH and osmotic pressure were adjusted with hydrochloric acid or sodium hydroxide.
# Ten mL of each of the thus obtained eye drops was poured into a 13 mL eye drop container (material: low density polyethylene or high density polyethylene; shape: the same as that of the container for Namida Rohto Dry Eye (trade name) (Rohto Pharmaceutical)) with a glass volumetric pipette and the container was sealed.
# For these eye drops, the stability test was performed by leaving them to stand in the upright position at 40° C., 75% RH for 2 hours, 8 hours, and 24 hours. The all-trans form content (g/100 mL) in each of the eye drops was quantified by HPLC immediately after the production and after being left to stand for a predetermined period of time, and the residual ratio (%) was calculated.
# [3] = Residual ratio of GGA in eye drops held in various plastic or glass containers, 40° C., 75% RH, 2 hours; details: Table 4, various container materials
# Experimental: as §1
# Five mL of each of the eye drops was poured into various plastic or glass containers (volume: 10 to 15 mL) with a glass volumetric pipette and the containers were sealed. […] The all-trans form content (g/100 mL) in each of the eye drops was quantified under the HPLC conditions described above immediately after the production and after being left to stand for a predetermined period of time, and the residual ratio (%) was calculated.
smiles,measurement,setting,value
"Cc1cc(C(C)(C)C)c(O)c(C(C)(C)C)c1 [BHT, butylhydroxytoluene]",Effect of added fat-soluble antioxidant on loss of the GGA content,[1],greatly reduced the loss of the GGA content
CCCCCCCCC(CCCCCC)C(=O)OC[C@H](OC(=O)C(CCCCCC)CCCCCCCC)[C@H]1OC(=O)C(OC(=O)C(CCCCCC)CCCCCCCC)=C1OC(=O)C(CCCCCC)CCCCCCCC (stereo partly drawn) [ascorbyl tetraisopalmitate],Effect of added fat-soluble antioxidant on adsorption of GGA to the container wall,[2],reduced adsorption of GGA to the wall of the containers in a dose-dependent manner
CCCCCCCCCCCCCCCC(=O)OC/C=C(C)/C=C/C=C(C)/C=C/C1=C(C)CCCC1(C)C [retinol palmitate],Effect of added fat-soluble antioxidant on loss of the GGA content,[3],greatly reduced the loss of the GGA content
